The subject of the assay is Pseudomonas aeruginosa. The assay can be described thus: MIC determination via the microdilution method. The class given is cell-based. As to conditions: read-out: minimum inhibitory concentration (MIC). An excerpt: Ciprofloxacin hydrochloride and gatifloxacin hydrochloride were supplied by Junda Pharmaceutical Co. Ltd (of Guangzhou of China). The aqueous solution of ciprofloxacin hydrochloride and gatifloxacin hydrochloride (at a weight ratio of 1:2.5) was obtained by dissolving both drugs together in water. The weight ratio of the individual quinolone in the solution (as well as in the resultant spray-dried particle) was based on the quinolone's minimum inhibitory concentration (MIC). The MIC was experimentally determined and a ratio of the quinolones was obtained as a guideline in developing the final workable proportion. The quinolones' MIC values were important as they provided preliminary guidance on the required therapeutic dose of each quinolone in the binary (SD-CIP/GAT) powder formulation (i.e. combination ratios). The MICs of the various quinolones for the bacteria Pseudomonas aeruginosa different bacteria were determined via the microdilution method and used to determine the desired binary drug proportions. For the bacteria Pseudomonas aeruginosa, since MICCIP:MICGAT is 1:2 (actual values are 0.25 μg/ml:0.5 μg/ml), the binary formulation was composed of CIP:GAT in the ratio of 1:2. […]

Structures can show the parent of a compound that is named as a salt.

On to `O=C(O)c1cn(C2CC2)c2cc(N3CCNCC3)c(F)cc2c1=O` [CIP, ciprofloxacin hydrochloride], for which the MIC worked out at 0.25 µg/mL.
To `COc1c(N2CCNC(C)C2)c(F)cc2c(=O)c(C(=O)O)cn(C3CC3)c12` (centres unmarked) [GAT, gatifloxacin hydrochloride] belongs 0.5 µg/mL.

The values are drawn from patent US9707228B2, “Dry powder formulation” (Agency for Science, Technology and Research, priority 2012, dated 2017).
